US8618151B2, “Inhibitors of HCV NS5A” (Presidio Pharmaceuticals, Inc., priority 2008, dated 2013)

System: HCV genotype 1b replicon
Test: HCV replicon assay (1b_Huh-Luc/Neo-ET cell line, luciferase readout)
Type: cell-based
Settings: Hepatitis C virus, Huh-7, 72 h, read-out: Inhibition of HCV genotype 1b
Protocol: Biological activity of the compounds of the invention was determined using an HCV replicon assay. The 1b_Huh-Luc/Neo-ET cell line persistently expressing a bicistronic genotype 1b replicon in Huh 7 cells was obtained from ReBLikon GMBH. This cell line was used to test compound inhibition using luciferase enzyme activity readout as a measurement of compound inhibition of replicon levels.
On Day 1 (the day after plating), each compound is added in triplicate to the cells. Plates incubated for 72 h prior to running the luciferase assay. Enzyme activity was measured using a Bright-Glo Kit (cat. number E2620) manufactured by Promega Corporation. The following equation was used to generate a percent control value for each compound. % Control=(Average Compound Value/Average Control)*100
The EC50 value was determined using GraphPad Prism and the following equation: Y=Bottom+(Top−Bottom)/1+10^((Log IC50−X)*HillSlope))
EC50 values of compounds are repeated several times in the replicon assay.

| SMILES | EC50 |
| --- | --- |
| COC(=O)N[C@@H](C(=O)N1CCC[C@H]1c1nc(-c2cnc3cc(-c4ccc(-c5cnc([C@@H]6CCCN6C(=O)[C@H](NC(=O)OC)c6ccccc6)[nH]5)cn4)ccc3c2)c[nH]1)c1ccccc1 [compound 80] | < 1 nM |
| COC(=O)N[C@H](C(=O)N1CCC[C@H]1c1ncc(-c2ccc(-c3ccc4cc(-c5c[nH]c([C@@H]6CCCN6C(=O)[C@H](NC(=O)OC6CCOCC6)c6ccccc6)n5)cnc4c3)nc2)[nH]1)C(C)C [compound 81] | < 1 nM |
| COC(=O)N[C@H](C(=O)N1CCC[C@H]1c1ncc(-c2ccc(-c3ccc4cc(-c5c[nH]c([C@@H]6CCCN6C(=O)[C@H](NC(=O)OC(C)(C)C)c6ccccc6)n5)cnc4c3)nc2)[nH]1)C(C)C [compound 82] | < 1 nM |
| COC(=O)N[C@H](C(=O)N1CCC[C@H]1c1nc(-c2ccc3cc(-c4ccc(-c5cnc([C@@H]6CCCN6C(=O)[C@@H](NC(=O)OC)C(C)C)[nH]5)nc4)ccc3c2)c[nH]1)C(C)C [compound 83] | < 1 nM |
| COC(=O)N[C@H](C(=O)N1CCC[C@H]1c1nc(-c2ccc3cc(-c4ccc(-c5cnc([C@@H]6CCCN6C(=O)[C@@H](NC(=O)OC)C6CCOCC6)[nH]5)nc4)ccc3c2)c[nH]1)C(C)C [compound 84] | < 1 nM |
| COC(=O)N[C@H](C(=O)N1CCC[C@H]1c1nc(-c2ccc3cc(-c4ccc(-c5cnc([C@@H]6CCCN6C(=O)[C@@H](NC(=O)OC)C(C)C)[nH]5)cc4C)ccc3c2)c[nH]1)C(C)C [compound 85] | < 1 nM |
| COC(=O)N[C@H](C(=O)N1CCC[C@H]1c1nc(-c2ccc3cc(-c4ccc(-c5cnc([C@@H]6CCCN6C(=O)[C@@H](NC(=O)OC)C6CCOCC6)[nH]5)cc4C)ccc3c2)c[nH]1)C(C)C [compound 86] | < 1 nM |
| COC(=O)N[C@H](C(=O)N1CCC[C@H]1c1ncc(-c2ccc(-c3ccc4cc(-c5c[nH]c([C@@H]6CCCN6C(=O)[C@H](NC(=O)OC)c6ccccc6)n5)ccc4c3)c(C)c2)[nH]1)C(C)C [compound 87] | < 1 nM |
| COC(=O)N[C@H](C(=O)N1CCC[C@H]1c1nc(-c2cnc3cc(-c4ccc(-c5cnc([C@@H]6CCCN6C(=O)[C@H](NC(=O)OC6CCOCC6)c6ccccc6)[nH]5)cc4)ccc3c2)c[nH]1)C(C)C [compound 88] | < 1 nM |
| COC(=O)N[C@H](C(=O)N1CCC[C@H]1c1nc(-c2cnc3cc(-c4ccc(-c5cnc([C@@H]6CCCN6C(=O)[C@H](NC(=O)OC6CCOCC6)c6ccccc6)[nH]5)cc4)ccc3c2)c[nH]1)C1CCOCC1 [compound 89] | < 1 nM |
| COC(=O)N[C@H](C(=O)N1CCC[C@H]1c1ncc(-c2ccc(-c3ccc4cc(-c5c[nH]c([C@@H]6CCCN6C(=O)[C@H](NC(=O)OC)c6ccccc6)n5)ccc4n3)cc2)[nH]1)C1CCOCC1 [compound 90] | < 1 nM |
| COC(=O)N[C@H](C(=O)N1CCC[C@H]1c1ncc(-c2ccc(-c3ccc4cc(-c5c[nH]c([C@@H]6CCCN6C(=O)[C@H](NC(=O)OC(C)(C)C)c6ccccc6)n5)ccc4n3)cc2)[nH]1)C1CCOCC1 [compound 91] | < 1 nM |
| COC(=O)N[C@H](C(=O)N1CCC[C@H]1c1ncc(-c2ccc(-c3ccc4cc(-c5c[nH]c([C@@H]6CCCN6C(=O)[C@H](NC(=O)OC6CCOCC6)c6ccccc6)n5)ccc4n3)cc2)[nH]1)C1CCOCC1 [compound 92] | < 1 nM |
| COC(=O)N[C@H](C(=O)N1CCC[C@H]1c1nc(-c2cnc3cc(-c4ccc(-c5cnc([C@@H]6CCCN6C(=O)[C@@H](NC(=O)OC)C(C)C)[nH]5)nc4)ccc3c2)c[nH]1)C(C)C [compound 93] | < 1 nM |
| COC(=O)N[C@H](C(=O)N1CCC[C@H]1c1ncc(-c2ccc(-c3ccc4cc(-c5c[nH]c([C@@H]6CCCN6C(=O)[C@H](NC(=O)OC)c6ccccc6)n5)cnc4c3)cn2)[nH]1)C(C)C [compound 94] | < 1 nM |
| COC(=O)N[C@H](C(=O)N1CCC[C@H]1c1ncc(-c2ccc(-c3ccc4cc(-c5c[nH]c([C@@H]6CCCN6C(=O)[C@@H](NC(=O)OC)C6CCOCC6)n5)cnc4c3)cn2)[nH]1)C(C)C [compound 95] | < 1 nM |
| COC(=O)N[C@H](C(=O)N1CCC[C@H]1c1nc(-c2ccc3nc(-c4ccc(-c5cnc([C@@H]6CCCN6C(=O)[C@@H](NC(=O)OC)C(C)C)[nH]5)cc4F)ccc3c2)c[nH]1)C(C)C [compound 96] | < 1 nM |
| COC(=O)N[C@@H](C(=O)N1CCC[C@H]1c1nc(-c2ccc3nc(-c4ccc(-c5cnc([C@@H]6CCCN6C(=O)[C@H](NC(=O)OC)c6ccccc6)[nH]5)cc4F)ccc3c2)c[nH]1)c1ccccc1 [compound 97] | < 1 nM |
| COC(=O)N[C@H](C(=O)N1CCC[C@H]1c1nc(-c2ccc3nc(-c4ccc(-c5cnc([C@@H]6CCCN6C(=O)[C@@H](NC(=O)OC)C6CCOCC6)[nH]5)cc4F)ccc3c2)c[nH]1)C1CCOCC1 [compound 98] | < 1 nM |
| COC(=O)N[C@H](C(=O)N1CCC[C@H]1c1nc(-c2ccc3cc(-c4ccc(-c5cnc([C@@H]6CCCN6C(=O)[C@H](NC(=O)OC)c6ccccc6)[nH]5)cc4)ccc3c2)c[nH]1)C1CCOCC1 [compound 99] | < 1 nM |

| SMILES | EC50 |
| --- | --- |
| COC(=O)N[C@H](C(=O)N1CCC[C@H]1c1nc(-c2ccc3cc(-c4ccc(-c5cnc([C@@H]6CCCN6C(=O)[C@H](NC(=O)OC)c6ccccc6)[nH]5)cc4)ncc3c2)c[nH]1)C1CCOCC1 [compound 100] | < 1 nM |
| COC(=O)N[C@H](C(=O)N1CCC[C@H]1c1ncc(-c2ccc(-c3cc4ccc(-c5c[nH]c([C@@H]6CCCN6C(=O)[C@H](NC(=O)OC)c6ccccc6)n5)cc4cn3)cc2)[nH]1)C1CCOCC1 [compound 101] | < 1 nM |
| COC(=O)N[C@H](C(=O)N1CCC[C@H]1c1nc(-c2ccc3cc(-c4ccc(-c5cnc([C@@H]6CCCN6C(=O)[C@@H](NC(=O)OC)C(C)C)[nH]5)cc4)ccc3n2)c[nH]1)C(C)C [compound 102] | < 1 nM |
| COC(=O)N[C@H](C(=O)N1CCC[C@H]1c1ncc(-c2ccc(-c3ccc4nc(-c5c[nH]c([C@@H]6CCCN6C(=O)[C@H](NC(=O)OC)c6ccccc6)n5)ccc4c3)cc2)[nH]1)C(C)C [compound 103] | < 1 nM |
| COC(=O)N[C@H](C(=O)N1CCC[C@H]1c1ncc(-c2ccc(-c3ccc4cc(-c5c[nH]c([C@@H]6CCCN6C(=O)[C@@H](NC(=O)OC)C6CCOCC6)n5)ccc4c3)c(C)c2)[nH]1)C(C)C [compound 104] | < 1 nM |
| COC(=O)N[C@H](C(=O)N1CCC[C@H]1c1ncc(-c2ccc(-c3ccc4cc(-c5c[nH]c([C@@H]6CCCN6C(=O)[C@H](NC(=O)OC)c6ccccc6)n5)ccc4c3)cc2)[nH]1)C1CCOCC1 [compound 105] | < 1 nM |
| COC(=O)N[C@H](C(=O)N1CCC[C@H]1c1ncc(-c2ccc(-c3ccc4cc(-c5c[nH]c([C@@H]6CCCN6C(=O)[C@H](NC(=O)OC)c6ccccc6)n5)ccc4c3)c(F)c2)[nH]1)C1CCOCC1 [compound 106] | < 1 nM |
| COC(=O)N[C@H](C(=O)N1CCC[C@H]1c1nc(-c2ccc3nc(-c4ccc(-c5cnc([C@@H]6CCCN6C(=O)[C@H](NC(=O)OC)c6ccccc6)[nH]5)cc4F)ccc3c2)c[nH]1)C(C)C [compound 107] | < 1 nM |
| COC(=O)N[C@H](C(=O)N1CCC[C@H]1c1nc(-c2ccc3nc(-c4ccc(-c5cnc([C@@H]6CCCN6C(=O)[C@@H](NC(=O)OC)C6CCOCC6)[nH]5)c(F)c4)ccc3c2)c[nH]1)C1CCOCC1 [compound 108] | < 1 nM |
| COC(=O)N[C@@H](C(=O)N1CCC[C@H]1c1nc(-c2ccc3nc(-c4ccc(-c5cnc([C@@H]6CCCN6C(=O)[C@H](NC(=O)OC)c6ccccc6)[nH]5)c(F)c4)ccc3c2)c[nH]1)c1ccccc1 [compound 109] | < 1 nM |
| COC(=O)N[C@H](C(=O)N1CCC[C@H]1c1nc(-c2ccc3cc(-c4ccc(-c5cnc([C@@H]6CCCN6C(=O)[C@H](NC(=O)OC)c6ccsc6)[nH]5)cc4)ccc3c2)c[nH]1)C1CCOCC1 [compound 110] | < 1 nM |
| COC(=O)N[C@H](C(=O)N1CCC[C@H]1c1nc(-c2ccc3cc(-c4ccc(-c5cnc([C@@H]6CCCN6C(=O)[C@H](NC(=O)OC)c6ccc(F)cc6)[nH]5)cc4)ccc3c2)c[nH]1)C1CCOCC1 [compound 111] | < 1 nM |
| COC(=O)N[C@H](C(=O)N1CCC[C@H]1c1nc(-c2ccc3cc(-c4ccc(-c5cnc([C@@H]6CCCN6C(=O)[C@@H](NC(=O)OC6CCOCC6)c6ccccc6)[nH]5)cc4)ccc3c2)c[nH]1)C1CCOCC1 [compound 112] | < 1 nM |
| COC(=O)N[C@H](C(=O)N1CCC[C@H]1c1nc(-c2ccc3cc(-c4ccc(-c5cnc([C@@H]6CCCN6C(=O)[C@H](NC(=O)OC6CCOCC6)c6ccccc6)[nH]5)cc4)ccc3c2)c[nH]1)C1CCOCC1 [compound 113] | < 1 nM |
| COC(=O)N[C@H](C(=O)N1CCC[C@H]1c1nc(-c2ccc3cc(-c4ccc(-c5cnc([C@@H]6CCCN6C(=O)[C@H](NC(=O)OC)c6ccccc6)[nH]5)cc4F)ccc3c2)c[nH]1)C1CCOCC1 [compound 114] | < 1 nM |
| COC(=O)N[C@H](C(=O)N1CCC[C@H]1c1ncc(-c2ccc3cc(-c4ccc(-c5cnc([C@@H]6CCCN6C(=O)[C@H](NC(=O)OC)c6ccccc6)[nH]5)cc4)ccc3c2)[nH]1)[C@@H](C)OC [compound 115] | < 1 nM |
| COC(=O)N[C@H](C(=O)N1CCC[C@H]1c1ncc(-c2ccc3cc(-c4ccc(-c5cnc([C@@H]6CCCN6C(=O)[C@@H](c6ccccc6)N6CCOCC6)[nH]5)cc4)ccc3c2)[nH]1)C(C)C [compound 116] | < 1 nM |
| COC(=O)N[C@H](C(=O)N1CCC[C@H]1c1ncc(-c2ccc3cc(-c4ccc(-c5cnc([C@@H]6CCCN6C(=O)[C@H](NC(=O)OC6CCOCC6)c6ccccc6)[nH]5)cc4)ncc3c2)[nH]1)C1CCOCC1 [compound 117] | < 1 nM |
| COC(=O)N[C@H](C(=O)N1CCC[C@H]1c1ncc(-c2ccc3cc(-c4ccc(-c5cnc([C@@H]6CCCN6C(=O)[C@H](NC(=O)OC(C)(C)C)c6ccccc6)[nH]5)cc4)ncc3c2)[nH]1)C1CCOCC1 [compound 118] | < 1 nM |
